According to patent publication US9521845B2, “Beta-lactones as antibacterial agents” (LUDWIG-MAXIMILIANS-UNIVERSITÄT-MÜNCHEN, priority 2008, dated 2016):

Columns and labels:
bacterial proteomes = assay: ABPP labeling of bacterial proteomes, labeling profile; assay type: binding; details: 50 μM probe
Text: The library of beta-lactones to be tested comprised compounds with aliphatic or aromatic substitutions varying in length and branching. To evaluate the target selectivity, the beta-lactones were screened against several gram-positive and gram-negative bacterial proteomes including Pseudomonas putida, Listeria welshimeri, Bacillus licheniformis, Bacillus subtilis and Escherichia coli, which are phylogenetically related to pathogenic strains. In addition, mouse liver cytosol was included as an eukaryotic reference proteome. Initial labeling experiments were carried out by adding individual probes at 50 μM concentration to the proteome which is sufficient to achieve full saturation of most targets. […] As an example, labeling of L. welshimeri cytosolic and membrane proteomes as well as B. subtilis cytosolic proteome with a subset of the most complementary probes is shown in FIGS. 9A and 9B. […] Most of the targeted proteins were of low abundance as shown by the direct comparison of the relative intensities observed with Coomassie staining vs. fluorescence scanning (FIG. 11).
(§1) Proteome samples were adjusted to a final concentration of 1 mg protein/mL by dilution in PBS prior to probe labeling. Experiments for visualization by 1D SDS-PAGE were carried out in 43 μL total volume and those for affinity enrichment in 1892 μL total volume, such that once CC reagents were added, the total reaction volume was 50 μL and 2 mL, respectively. Reactions were initiated by addition of the probe and allowed to incubate for 60 min at room temperature. For heat controls the proteome was denatured with 1 μL of 43% SDS at 95° C. for 6 min and cooled to room temperature before the probe was applied. Following incubation, reporter tagged-azide reagents (13 μM rhodamine-azide for analytical or 20 μM rhodamine-biotin-azide for preparative scale) were added followed by 1 mM TCEP and 100 μM ligand. Samples were gently vortexed and the cycloaddition initiated by the addition of 1 mM CuSO4. The reactions were incubated at room temperature for 1 h (Speers, J. Amer. Chem. Soc. 125 (2003), 4686).

ClpP = biological target: T1, ClpP (Listeria monocytogenes serovar 1/2a, UniProt Q9RQI6); assay: In vivo labeling of Listeria proteomes; assay type: cell-based; details: living L. monocytogenes EGDe, cytosol, 2 h incubation
T1 construct: endogenous in cells; host or cells: living Listeria monocytogenes EGDe, stationary phase
T1 sequence (Q9RQI6 whole entry): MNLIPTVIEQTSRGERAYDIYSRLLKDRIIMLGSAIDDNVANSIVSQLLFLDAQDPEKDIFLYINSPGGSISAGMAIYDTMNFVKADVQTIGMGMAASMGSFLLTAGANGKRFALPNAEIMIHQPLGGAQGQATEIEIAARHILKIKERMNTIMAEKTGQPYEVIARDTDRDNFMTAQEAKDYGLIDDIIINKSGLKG
Method: For analytical and preparative in vivo studies, Listeria were grown to stationary phase and harvested by centrifugation at 4,000 rpm 1 h after entrance in the stationary phase (1.5 ml for analytical and 15 ml for preparative studies). The cell pellets were washed once with PBS and resuspended in 100 μL and 500 μL PBS for analytical and preparative studies, respectively. The cell suspensions were incubated for 2 h with varying concentrations of probe at room temperature. Probes were applied from DMSO stocks whereby DMSO never exceeded 2% in the final solution. For preparative experiments, 50 μM of the probes was added to the cells resuspended in PBS. After incubation, the cells were washed thoroughly three times with PBS to remove excess probe from the supernatant. Subsequently the cells were lysed in 100 μL (500 μL) PBS by sonication with a Bandelin Sonopuls with 3×20 sec. pulsed at 70% max. power. For analytical experiments 44 μL proteome were used to append a reporter tag via CC, such that once CC reagents were added, the total reaction volume was 50 μL. In preparative purposes the total volume of 500 μL it was consumed per experiment. Reporter tagged-azide reagents (13 μM rhodamine-azide for analytical or 20 μM rhodamine-biotin-azide for preparative scale) were added followed by 1 mM TCEP and 100 μM ligand. Samples were gently vortexed and the cycloaddition initiated by the addition of 1 mM CuSO4. The reactions were incubated at room temperature for 1 h. For analytical gel electrophoresis, 50 μL 2×SDS loading buffer were added and 50 μL applied on the gel. Fluorescence was recorded in a Fujifilm Las-3000 Fluoreszenz Darkbox with a Fujinon VRF 43LMD Lens, 605DF40 filter and 520 nm EPI excitation wavelength.

[1] = tested on: LLO haemolytic activity of L. monocytogenes EGDe; assay: LLO haemolytic activity testing of culture supernatants; assay type: cell-based, Listeria monocytogenes EGDe
Method: Overnight cultures of L. monocytogenes EGDe were harvested by centrifugation and resuspended in an equal volume of fresh BHB medium. In 1.5 mL Eppendorf tubes, 400 μL of BHB medium were inoculated with 4 μL of the resuspended Listeria culture and 4 μL of a corresponding beta-lactone stock in DMSO. The final concentrations were 800 μM, 400 μM, 200 μM, 100 μM and DMSO as control. The amount of DMSO in all tests was 1% of the medium. After mixing, the test tubes were incubated under continuous shaking at 200 rpm at 37° C. for 16 h. Then, cells were centrifuged and the supernatants filtered sterile by passing them through a 0.2 μm pore size filter. Haemolytic activity of LLO in the culture supernatants was quantitatively investigated according to a method described in J. Food Safety 1998, 18: 197-203 (incorporated herein by reference) with some modifications. In Nunclon™ 96-well plates with round shaped wells 100 μL of serial dilutions of the supernatants in PBS were added per well and incubated with 100 μL of 3% SRBC (sheep red blood cells) resuspended in PBS for 15 min at 37° C. under gentle shaking. The 96-well plates were centrifuged at 600 rpm for 5 min and the minimum dilution at which intact blood cells began to form a pellet was recorded. Controls with no lactone were set 100%. Buffer only controls and pure BHB medium yielded no haemolysis.

[2] = tested on: lipase/acylhydrolase (LipAc); assay: ABPP probe dose down in proteome, lipase/acylhydrolase labeling; assay type: binding; details: L. welshimeri proteome, concentration range 10 μM to 5 nM
Method: To estimate the strength of probe interactions with proteins in the proteome, we compared the reactivity profiles of selected beta-lactones across a broad concentration range from 10 μM to 5 nM.
as §1

[3] = tested on: haemolysis abilities of Staphylococcus aureus; assay: Blood agar plate-based haemolysis assay; assay type: cell-based; details: total amount of 250 nmol applied on Whatman Cards, 5% sheep blood agar, 37° C. over night
Method: FIG. 3: Blood agar plate-based assay illustrating that beta-lactones have an effect on the haemolysis abilities of Staphylococcus aureus. 2.5 μL of S. aureus LB dilution (OD600=0.13 corresponding to approx. 1×10^8 cfu/ml) and 2.5 μL DMSO/lactone in DMSO were applied on Whatman Cards placed on 5% sheep blood agar plates (Heipha Diagnostika, Eppelheim, Germany) and incubated at 37° C. over night. A) Direct comparison of beta-lactones as shown in FIG. 2 at a total amount of 250 nmol applied on Whatman Cards. B) Dose down with beta-lactone compounds D3, E2 and G2 at applied concentrations of 100 mM, 50 mM, 25 mM, 12.5 mM, 6.25 mM and 0 mM (corresponding to total amounts of 250 nmol, 125 nmol, 62.5 nmol, 31.3 nmol, 15.6 nmol and 0 nmol, respectively).
2.5 μl, of S. aureus LB dilution (OD600 0.13 corresponding to approx. 1×10^8 cfu/ml) and 2.5 μL DMSO/beta-lactone in DMSO were applied on Whatman Cards placed on 5% sheep blood agar plates (Heipha Diagnostika, Eppelheim, Germany) and incubated at 37° C. over night. FIG. 3A directly compares the β-lactones at a total amount of 250 nmol applied on Whatman Cards. […] For D3 almost no haemolysis is observed down to a total amount of 125 nmol lactone. FIG. 5 illustrates the haemolytic activity of beta-lactone compounds D3, E2 and G2 plotted against the total amount of the respective beta-lactone, whereby a haemolysis zone size of 1.5 mm was set as 100% haemolytic activity. The data shown in FIG. 5 has been corroborated by further experimental testing.
Haemolysis was tested on blood agar plates (5% sheep blood; Heipha Diagnostika, Eppelheim, Germany). Sterile circles of Whatman cards (No. Y) with 5 mm diameter were placed on agar plates and inoculated with 2.5 μL of the corresponding beta-lactone/DMSO and 2.5 μL stationary phase culture of S. aureus diluted to […]. The plates were incubated over night at 37° C. and the diameters of the zones around the bacterial colonies were precisely measured using a vernier caliper.

[4] = tested on: proteolysis abilities of Staphylococcus aureus; assay: Milk agar plate-based proteolysis assay; assay type: cell-based; details: for proteolytic activity of S. aureus: total amount of 250 nmol applied on Whatman Cards, 1% skim milk LB agar, 37° C. over night
Method: FIG. 6: Milk agar plate-based assay illustrating that beta-lactones have an effect on the proteolysis abilities of Staphylococcus aureus. 2.5 μL of S. aureus LB dilution (OD600=0.13 corresponding to approx. 1×10^8 cfu/ml) and 2.5 μL DMSO/beta-lactone in DMSO were applied on Whatman Cards placed on 1% skim milk LB agar plates and incubated at 37° C. over night. A) Direct comparison of beta-lactones as shown in FIG. 2 at a total amount of 250 nmol applied on Whatman Cards. B) Dose down with beta-lactones D3, E2 and G2 at applied concentrations of 100 mM, 50 mM, 25 mM, 12.5 mM, 6.25 mM and 0 mM (corresponding to total amounts of 250 nmol, 125 nmol, 62.5 nmol, 31.3 nmol, 15.6 nmol and 0 nmol, respectively). C) Proteolysis zone size plotted against the total amount of the respective beta-lactone.
2.5 μL of S. aureus LB dilution (OD600=0.13 corresponding to approx. 1×10^8 cfu/ml) and 2.5 μL DMSO/beta-lactone in DMSO were applied on Whatman Cards placed on 1% skim milk LB agar plates and incubated at 37° C. over night. FIG. 6A directly compares the β-lactones at a total amount of 250 nmol applied on Whatman Cards. […] For D3 and E2 almost no proteolysis is observed down to a total amount of 125 nmol of the respective beta-lactone. FIG. 6C illustrates that the proteolysis zone size plotted against the total amount of beta-lactone visualizes the strong effects particularly of D3 and E2.

serine proteases = assay: Competitive labeling with PMSF; assay type: binding; details: 100 fold excess, 15 min prior to beta-lactone probes
Method: (§2) FIG. 13: Active site competition assays and IC50. A) Competition experiment with KAS II with and without 100 fold excess of cerulenin in presence of the beta-lactone probe G2. B) Competition experiments with several serine proteases with and without 100 fold excess of PMSF in presence of the corresponding beta-lactone probes (LWC: L. welshimeri cytosol, LWM: L. welshimeri membrane, BSC: B. subtilis cytosol). C) IC50 of 5 μM for SFGH. For a list of abbreviations, please refer to Example 6, Table 1. The term PNB is also referred to herein as PNBE.
(§3) In competitive assays, a 100 fold excess of PMSF or cerulenin was added to the proteome 15 min prior to beta-lactone addition.

KAS II = assay: Competitive labeling with cerulenin; assay type: binding; details: 100 fold excess, 15 min prior to beta-lactone probe G2
Method: as §2, §3

C#CCCC[C@H]1OC(=O)[C@H]1C(C)(C)C (relative stereo) [L1, cis-3-dimethylethyl-4-(4-pentyn-1-yl)oxetan-2-one]
enzyme labeling in proteomes (bacterial proteomes): decreased the number of specific labeling events

C#CCCC[C@@H]1OC(=O)[C@H]1CCCCCCCC(=O)Sc1ccccc1 (relative stereo) [N1, trans-S-phenyl 8-(2-oxo-4-(4-pentyn-1-yl)oxetan-3-yl)octanethioate]
ClpP labeling (probe potency ranking) (ClpP): most potent probes | EC50 ([1]; Listeria monocytogenes, Erythrocyte, cultures grown 16 h with lactone, sheep red blood cells, read-out: EC50 of reduction of LLO haemolytic activity): < 100 µM

C#CCCC[C@@H]1OC(=O)[C@H]1c1ccc2ccccc2c1 (relative stereo) [P1, trans-3-(2-naphthyl)-4-(4-pentyn-1-yl)oxetan-2-one, reference compound]
probe concentration down to which LipAc is labeled [2]: 160 nM

C#CCCCC1CC(=O)O1 (stereo not shown) [A1, 4-(4-Pentyn-1-yl)oxetan-2-one]
enzyme labeling in proteomes (bacterial proteomes): poor in enzyme labeling

C#CCCCC1OC(=O)C1c1ccc(OC)cc1 (stereo not drawn) [E2, trans-3-(4-methoxyphenyl)-4-(4-pentyn-1-yl)oxetan-2-one]
haemolytic activity of S. aureus [3]: strongly reduce | total amount down to which almost no proteolysis is observed ([4]; dose down 250-15.6 nmol): 125 nmol | proteolytic activity of S. aureus [4]: strongly reduce

C#CCCCC1OC(=O)C1(C)C (stereo not drawn) [M1, trans-3,3-dimethyl-4-(4-pentyn-1-yl)oxetan-2-one, reference compound]
haemolytic activity of S. aureus [3]: no effect | proteolytic activity of S. aureus [4]: no effect | ClpP labeling (probe potency ranking) (ClpP): did not label and inhibit ClpP | effect on haemolysis ([1]; control probe): no effect | lysis of blood cells by culture supernatant ([1]; fourfold dilution of supernatant, even at 800 μM): complete lysis

C#CCCCC1OC(=O)C12CCCCC2 (stereo not shown) [O1, 4-(4-pentyn-1-yl)oxetan-2-one-3-spirocyclohexane]
enzyme labeling in proteomes (bacterial proteomes): decreased the number of specific labeling events

O=S(=O)(F)Cc1ccccc1 [PMSF]
effect of pre-incubation on probe labeling of serine proteases (serine proteases): prevented subsequent probe labeling

C/C=C/C/C=C/CCC(=O)[C@H]1O[C@H]1C(N)=O [cerulenin]
effect of pre-incubation on probe labeling of KAS II (KAS II): prevented subsequent probe labeling
